The results in this text go back to patent US11026426B2, “Oxadiazole and phenol derivatives as antibacterial and/or herbicidal agents” (NORTHERN ILLINOIS RESEARCH FOUNDATION, priority 2017, dated 2021).

One may read the melting point as the temperature, or range, at which the solid turns liquid. As usually defined, the IC50 is the point on the concentration scale where inhibition reaches its midpoint.

Where two headings read alike, the source gives them in different places.

One series concerns the target AtIspF (Arabidopsis thaliana, UniProt Q9CAK8). The experiment in a line: University of Hamburg photometric enzymatic inhibition assay AtIspF. Format: biochemical. On the procedure: (§1) Compounds were subjected to a photometric enzymatic assay to test for inhibition of the plant enzymes Arabidopsis thaliana IspD and IspF, and IspE from Lycopersicon esculentum.
The IspF assay mixture conditions were as follows: 100 mM Tris hydrochloride at pH 8.0 with 10 mM MgCl2, 1 mM dithiothreitol, 2.5 mM potassium phosphoenol pyruvate, 2 mM ATP, 1 mM of 4-diphosphocytidyl-2C methylerythritol 2-phosphate, 460 μM NADH, 1.1% (v/v) DMSO, 0.5 U CMP kinase, 2.4 mU IspF, 1 U lactate dehydrogenase, 1 U pyruvate kinase in 180 μL of solution. Solutions were incubated at 27° C. and monitored photometrically.

The subject of series [1] is Pseudomonas aeruginosa. The experiment in a line: Antibacterial preliminary screening PA. Also: key: 0 represents no inhibition; 3 is comparable to commercial antibiotic control. Format: cell-based. The conditions noted are these: score 0-3.
The next series relates to lettuce seeds. The experiment in a line: Lettuce leaf assay. It counts as in vivo. Also on record: key: 0 (no effect); 5(complete inhibition or bleaching). The conditions noted are these: ranking 0-5. The text has this: The lettuce leaf assay is a qualitative assay used to determine the relative effectiveness of the test compounds at inhibition of germination of seeds and root development as well as causing bleaching of leaves. Isoprenoid synthesis is vital in plants as isoprene-product gibberellins are a class of growth hormones in plants responsible for stimulating cell elongation and division. In addition, some carotenoids are involved in photosynthesis as components of the electron transport chain. MEP pathway inhibitors have the potential to prevent synthesis of these necessary cellular components and growth hormones resulting in inhibition of germination and root development as well as causing chlorosis, or bleaching in the leaves. The lettuce leaf assay, explores the effects of compounds as potential MEP pathway inhibitors by evaluating the effect on bleaching, root development, and germination of lettuce seeds, which all rely on isoprenoid biosynthesis. […] The assay is a qualitative assay and the effects are given rankings from 0 (no effect) to 5 (complete inhibition or bleaching). In this assay, compounds are dissolved in a volatile organic solvent and applied to filter paper in a petri dish. The solvent is allowed to evaporate and lettuce seeds are applied followed by the addition of 5 mL of water to obtain the necessary concentrations. Seeds are allowed to grow and they are observed on day 3 and day 4 for evaluation.

Series [2] deals with Mycobacterium smegmatis. The experiment in a line: Antibacterial preliminary screening MS. It counts as cell-based. The conditions noted are these: for MS score: score 0-3.
Series [3] has as its target T1, Mycobacterium tuberculosis IspD (MtIspD) (Mycobacterium tuberculosis, UniProt P9WKG9).
T1 sequence (P9WKG9 1-231): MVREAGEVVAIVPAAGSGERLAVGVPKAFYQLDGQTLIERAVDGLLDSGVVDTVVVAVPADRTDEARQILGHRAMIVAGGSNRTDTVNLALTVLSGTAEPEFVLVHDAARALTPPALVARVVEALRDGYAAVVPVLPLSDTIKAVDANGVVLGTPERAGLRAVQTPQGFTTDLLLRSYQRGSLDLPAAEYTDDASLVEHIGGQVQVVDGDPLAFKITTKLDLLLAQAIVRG
The experiment in a line: Thermal shift assay against MtIspD. It counts as binding.

Series [4] addresses Lycopersicon esculentum IspE (LeIspE) (Solanum lycopersicum, UniProt P93841). The experiment in a line: Thermal shift assay against LeIspE. Format: binding.
Series [5] deals with Corynebacterium pseudodiphtheriae. The experiment in a line: Antibacterial preliminary screening CP.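 Also: 0 is no inhibition and 3 matches the commercial antibiotic control.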 Format: cell-based. The conditions noted are these: score 0-3.
The subject of series [6] is Corynebacterium xerosis. The experiment in a line: Antibacterial preliminary screening CX. Also: key: 0 represents no inhibition; 3 is comparable to commercial antibiotic control. Format: cell-based. The conditions noted are these: score 0-3.
Series [7] relates to Burkholderia thailandensis. Format: cell-based. The conditions noted are these: preliminary screening; for BT score: score 0-3.
In another series the target is AtIspD (Arabidopsis thaliana, UniProt P69834). The experiment in a line: University of Hamburg photometric enzymatic inhibition assay AtIspD. It counts as biochemical. On the procedure:
as §1
The procedure for AtIspD enzymatic inhibition assay, was performed by making an assay mixture of 100 mM Tris hydrochloride at pH 8.0 with 10 mM MgCl2, 1 mM dithiothreitol, 2.5 mM potassium phosphoenol pyruvate, 2.1 mM CTP, 2 mM ATP, 1 mM of (2R,3S)-2,3-dihydroxy-4-oxopentyl phosphate, 460 μM NADH, 1.1% (v/v) DMSO, 0.4 U IspE, 1 U lactate dehydrogenase, 1 U pyruvate kinase and 2.4 mU IspD in 180 μL of solution. Solutions were incubated at 27° C. and monitored photometrically. By preparing the assay mixture with a large excess of IspE compared to IspD, any inhibition of IspE by the test inhibitor would be insignificant compared to IspD and therefore the rate of the reaction is determined by IspD activity.

Another series has as its target LeIspE (Solanum lycopersicum, UniProt P93841). The experiment in a line: University of Hamburg photometric enzymatic inhibition assay LeIspE. It counts as biochemical, Lycopersicon esculentum. On the procedure: as §1
The IspE assay conditions were very similar to the IspD assay in which the assay mixture was composed of 100 mM Tris hydrochloride at pH 8.0 with 10 mM MgCl2, 1 mM dithiothreitol, 2.5 mM potassium phosphoenol pyruvate, 2 mM ATP, 1 mM of 4-Diphosphocytidyl-2-C-methylerythritol, 460 μM NADH, 1.1% (v/v) DMSO, 2.4 mU IspE, 1 U lactate dehydrogenase, 1 U pyruvate kinase in 180 μL of solution. Solutions were incubated at 27° C. and monitored photometrically.

The subject of series [8] is Klebsiella pneumonia. The experiment in a line: Antibacterial preliminary screening KP. Also: key: 0 represents no inhibition; 3 is comparable to commercial antibiotic control. Format: cell-based. The conditions noted are these: score 0-3.
Series [9] deals with Escherichia coli. The experiment in a line: Antibacterial preliminary screening EC. Also: key: 0 represents no inhibition; 3 is comparable to commercial antibiotic control. It counts as cell-based. The conditions noted are these: score 0-3.
The test system of series [10] is Micrococcus luteus. The experiment in a line: Antibacterial preliminary screening ML. Also: key: 0 represents no inhibition; 3 is comparable to commercial antibiotic control. It counts as cell-based. The conditions noted are these: score 0-3.
In series [11] the test system is Bacillus cereus. The experiment in a line: Antibacterial preliminary screening BC. Also: key: 0 represents no inhibition; 3 is comparable to commercial antibiotic control. Format: cell-based. The conditions noted are these: score 0-3.
Series [12] has as its system Bacillus cereus. The experiment in a line: Antibacterial assay zone of inhibition Bc. Format: cell-based.
Series [13] deals with Corynebacterium xerosis. The experiment in a line: Antibacterial assay zone of inhibition Cx. Format: cell-based.
Series [14] deals with Escherichia coli. The experiment in a line: Antibacterial assay zone of inhibition Ec. Format: cell-based.
Series [15] relates to Corynebacterium pseudodiphtheriae. The experiment in a line: Antibacterial assay zone of inhibition Cp. Format: cell-based.
In series [16] the test system is Klebsiella pneumonia. The experiment in a line: Antibacterial assay zone of inhibition Kp. Format: cell-based.
In series [17] the test system is Mycobacterium smegmatis. The experiment in a line: Antibacterial assay zone of inhibition Ms. Format: cell-based.
Series [18] relates to Pseudomonas aeruginosa. The experiment in a line: Antibacterial assay zone of inhibition Pa. Format: cell-based.
In series [19] the test system is Micrococcus luteus. The experiment in a line: Antibacterial assay zone of inhibition Ml. It counts as cell-based.
The test system of series [20] is Burkholderia thailandensis. It counts as cell-based.

Chain of AtIspD (P69834 62-302): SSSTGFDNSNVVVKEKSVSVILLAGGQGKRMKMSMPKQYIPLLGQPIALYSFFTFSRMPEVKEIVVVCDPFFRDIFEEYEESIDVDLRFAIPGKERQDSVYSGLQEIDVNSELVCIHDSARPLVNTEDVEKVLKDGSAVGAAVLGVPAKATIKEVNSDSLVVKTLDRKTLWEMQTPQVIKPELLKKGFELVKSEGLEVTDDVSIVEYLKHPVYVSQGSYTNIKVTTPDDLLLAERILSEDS
Chain of LeIspE (P93841 89-401): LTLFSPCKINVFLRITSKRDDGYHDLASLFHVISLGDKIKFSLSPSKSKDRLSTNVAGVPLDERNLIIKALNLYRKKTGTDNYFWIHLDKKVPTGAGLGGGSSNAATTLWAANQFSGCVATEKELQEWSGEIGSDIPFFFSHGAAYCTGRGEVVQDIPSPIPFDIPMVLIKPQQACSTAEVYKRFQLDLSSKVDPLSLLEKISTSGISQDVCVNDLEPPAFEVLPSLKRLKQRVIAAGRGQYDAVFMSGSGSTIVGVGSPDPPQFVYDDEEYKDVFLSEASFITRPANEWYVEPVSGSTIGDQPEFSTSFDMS
Chain of AtIspF (Q9CAK8 53-231): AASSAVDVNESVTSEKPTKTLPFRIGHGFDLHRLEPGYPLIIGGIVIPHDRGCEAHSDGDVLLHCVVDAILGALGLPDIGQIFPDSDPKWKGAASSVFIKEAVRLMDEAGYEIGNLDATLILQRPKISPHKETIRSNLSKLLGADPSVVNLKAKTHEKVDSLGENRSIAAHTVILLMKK
Chain of Lycopersicon esculentum IspE (LeIspE) (P93841 89-401): as the sequence (P93841 89-401) above

`Clc1ccc(-c2nnc(-c3nc4ccccc4[nH]3)o2)cc1` [HGN-421, 2-(1H-benzo[d]imidazole-2-yl)-5-(4-chlorophenyl)-1,3,4-oxadiazole] registered a melting point of 250 to 255 °C. For the same compound, the IC50 at AtIspF (read-out: AtIspF IC50) was 484 ± 95 µM. Moreover, the PA score with Pseudomonas aeruginosa [1] stood at 0. Besides, in the series with lettuce seeds (0.15 mM), the Bleaching is reported as 0, the Germination is 1 and the “Root Dev.” value is given as 0. Further, in the series with lettuce seeds (0.3 mM), the Bleaching is on record as 0, the Germination is reported as 1 and the “Root Dev.” value is 0. Besides, in the series on Mycobacterium smegmatis [2], the “antibacterial activity against Mycobacterium smegmatis” value is “slight antibacterial activity” and the MS score is reported as 1. In addition, in [3], the “MtIspD melting point change” value was 0.8 °C and the MtIspD melting temp was 48.8 °C. Further, in series [4], the “LeIspE melting point change” value was −1.50 °C and the LeIspE melting temp was 48.00 °C. The same compound came in with a CP score in series [5] of 0. Further, the CX score in the series on Corynebacterium xerosis [6] is recorded as 0. In [7], the “antibacterial activity against Burkholderia thailandensis” value is recorded as “slight antibacterial activity” and the BT score is reported as 1. Also, the IC50 on AtIspD (read-out: AtIspD IC50) came to 88 µM. Further, the IC50 at LeIspE (read-out: LeIspE IC50) turned out to be 298 ± 49 µM. In the series on Klebsiella pneumonia [8], this compound yielded a KP score of 0. In addition, the EC score in the series with Escherichia coli [9] turned out to be 0. For the same compound, the ML score in the series on Micrococcus luteus [10] was 0. The compound also had a BC score in the series on Bacillus cereus [11] of 0.
With `COCc1nnc(-c2cc3ccccc3[nH]2)o1` [HGN-212, 2-(1H-indol-2-yl)-5-(methoxymethyl)-1,3,4-oxadiazole], the melting point lay within 152 to 156 °C. The IC50 on AtIspF was over 1000 µM. Besides, the PA score with Pseudomonas aeruginosa [1] is 0. For the same compound, the MS score in the series on Mycobacterium smegmatis [2] was 0. Moreover, the CP score in series [5] is 0. In the series with Corynebacterium xerosis [6], this compound registered a CX score of 0. Besides, in series [7], the BT score was found to be 0. This compound had an IC50 on AtIspD of over 1000 µM. For the same compound, the IC50 against LeIspE was over 1000 µM. Further, the KP score in the series on Klebsiella pneumonia [8] was 0. This compound showed an EC score with Escherichia coli [9] of 0. In the series with Micrococcus luteus [10], this compound displayed an ML score of 0. Moreover, in the series with Bacillus cereus [11], the BC score came out at 0.
For the compound `c1ccc(-c2nnc(-c3cc4ccccc4[nH]3)o2)cc1` [HGN-208, 2-(1H-indol-2-yl)-5-phenyl-1,3,4-oxadiazole], the melting point fell in the range of 254 to 257 °C. The IC50 on AtIspF was over 1000 µM. Further, in the series on Pseudomonas aeruginosa [1], the PA score is recorded as 0. The MS score in the series with Mycobacterium smegmatis [2] amounted to 0. In [5], this compound returned a CP score of 0. In addition, in the series with Corynebacterium xerosis [6], the CX score is on record as 0. In addition, the BT score in series [7] is 0. On AtIspD, the IC50 amounted to 342 ± 42 µM. In addition, on LeIspE, the midpoint of inhibition, the IC50, lay at 165 ± 47 µM. In addition, the KP score in the series with Klebsiella pneumonia [8] stood at 0. The same compound had an EC score with Escherichia coli [9] of 0. Also, the ML score with Micrococcus luteus [10] came to 0. Further, in the series on Bacillus cereus [11], the BC score came to 0.
Compound `c1ccc2[nH]c(-c3nnc(C4CCC4)o3)cc2c1` [HGN-251, 2-cyclobutyl-5-(1H-indol-2-yl)-1,3,4-oxadiazole] yielded a melting point of 169 to 173 °C. The concentration for half-maximal inhibition (IC50) on AtIspF was over 1000 µM. Further, the PA score in the series with Pseudomonas aeruginosa [1] worked out at 0. The compound also yielded an MS score in the series on Mycobacterium smegmatis [2] of 0. This compound also registered a CP score in series [5] of 0. This compound also came in with a CX score with Corynebacterium xerosis [6] of 0. The same compound had a BT score in [7] of 0. For the same compound, the IC50 at AtIspD is over 1000 µM. Further, the IC50 against LeIspE was over 1000 µM. In the series with Klebsiella pneumonia [8], this compound had a KP score of 0. The same compound came in with an EC score in the series on Escherichia coli [9] of 0. In the series on Micrococcus luteus [10], this compound showed an ML score of 0. In addition, the BC score in the series with Bacillus cereus [11] is reported as 0.
Consider `Cc1cccc(OCc2nnc(-c3nc4ccccc4s3)o2)c1` [HGN-837], for which the “Antibacterial Bc zone of inhibition” value in the series on Bacillus cereus [12] (0.1 mM) was 0 millimeters; in the series with Bacillus cereus [12] (0.5 mM), 13 millimeters; with Bacillus cereus [12] (1 mM), 19 millimeters. Moreover, the “Antibacterial Cx zone of inhibition” value in the series with Corynebacterium xerosis [13] (0.1 mM) is reported as 0 millimeters; with Corynebacterium xerosis [13] (0.5 mM) it was 11 millimeters; in the series on Corynebacterium xerosis [13] (1 mM) it was 17 millimeters. The “Antibacterial Ec zone of inhibition” value in the series on Escherichia coli [14] (0.1 mM) is listed as 0 millimeters; with Escherichia coli [14] (0.5 mM), 10 millimeters; in the series with Escherichia coli [14] (1 mM), 17 millimeters. Besides, the “Antibacterial Cp zone of inhibition” value in series [15] (0.1 mM), in series [15] (0.5 mM) and in series [15] (1 mM) was 0 millimeters throughout. In addition, the “Antibacterial Kp zone of inhibition” value in the series with Klebsiella pneumonia [16] (0.1 mM), with Klebsiella pneumonia [16] (0.5 mM) and in the series with Klebsiella pneumonia [16] (1 mM) was 0 millimeters in each case. Also, the “Antibacterial Ms zone of inhibition” value in the series with Mycobacterium smegmatis [17] (0.1 mM), in the series on Mycobacterium smegmatis [17] (0.5 mM) and in the series with Mycobacterium smegmatis [17] (1 mM) was 0 millimeters each time. Besides, the “Antibacterial Pa zone of inhibition” value in the series on Pseudomonas aeruginosa [18] (0.1 mM), in the series on Pseudomonas aeruginosa [18] (0.5 mM) and in the series with Pseudomonas aeruginosa [18] (1 mM) was 0 millimeters throughout. Besides, the “Antibacterial Ml zone of inhibition” value in the series on Micrococcus luteus [19] (0.1 mM) amounted to 0 millimeters; with Micrococcus luteus [19] (0.5 mM), 6 millimeters; in the series on Micrococcus luteus [19] (1 mM), 10 millimeters. For the same compound, the “Antibacterial Bt zone of inhibition” value in [20] is given as 0 13 19.5 millimeters.
